Holding throughout (format): functional
The test system of one test is Pasteurella multocida. As to the kind of experiment: Compound was tested for minimum inhibitory concentration against Pasteurella multocida.
Test [1] concerns Brachyspira hyodysenteriae. As to the kind of experiment: Compound was tested for minimum inhibitory concentration against S. hyodysenteriae; 6.25-12.5.
Test [2] deals with Brachyspira hyodysenteriae. Put plainly: Compound was tested for minimum inhibitory concentration against Serpulina hyodysenteriae.

Each structure is given as a SMILES string. In brackets after ≈: the same amount, converted by molar mass. Some results are limits rather than exact numbers.

The compound `CC/C=C1/COc2cc(/C=C(\C)C(=O)N[C@@H]3[C@H](O)[C@@H](O)[C@H]4OCO[C@H]4[C@@H]3O)ccc21` had an MIC with Pasteurella multocida of 50 µg/mL (≈ 120 µM). `CCCc1coc2cc(/C=C(\C)C(=O)N[C@@H]3[C@H](O)[C@@H](O)[C@H]4OCO[C@H]4[C@@H]3O)ccc12`: the MIC with Pasteurella multocida was found to be 50 µg/mL (≈ 120 µM). Take `C=CCOc1cc2c(cc1O)C=C(C(=O)N[C@@H]1[C@H](O)[C@@H](O)[C@H]3OCO[C@H]3[C@@H]1O)CC2`: the MIC in the test on Pasteurella multocida is 12.5 µg/mL (≈ 29.8 µM); in test [1] it was 6.25 µg/mL (≈ 14.9 µM). With `C=CCOc1cc2ccc(C(=O)N[C@@H]3[C@H](O)[C@@H](O)[C@H]4OCO[C@H]4[C@@H]3O)cc2cc1O`, the MIC (against Pasteurella multocida; in test [2]) was 50 µg/mL (≈ 120 µM) throughout. For the compound `CC/C=C1\COc2cc(/C=C(\C)C(=O)N[C@@H]3[C@H](O)[C@@H](O)[C@H]4OCO[C@H]4[C@@H]3O)ccc21`, the MIC against Pasteurella multocida was determined as 50 µg/mL (≈ 120 µM). `C=CCOc1ccc2c(c1O)CCC(C(=O)N[C@@H]1[C@H](O)[C@@H](O)[C@H]3OCO[C@H]3[C@@H]1O)=C2`: the MIC (against Pasteurella multocida; in test [2]) was over 200 µg/mL in each case. Consider `C=CCOc1cc2c(cc1O)C=C(C(=O)N[C@@H]1[C@H](O)[C@@H](O)[C@H]3OCO[C@H]3[C@@H]1O)C2`, for which the MIC (against Pasteurella multocida; in test [2]) was over 200 µg/mL throughout.

Consider `C=CCOc1cc2c(cc1O)C=C(C(=O)N[C@@H]1[C@H](O)[C@@H](O)[C@H]3OCO[C@H]3[C@@H]1O)CCC2`, for which the MIC (in the test with Pasteurella multocida; in test [2]) was 25 µg/mL (≈ 57.7 µM) each time. `CCCC1COc2cc(/C=C(\C)C(=O)N[C@@H]3[C@H](O)[C@@H](O)[C@H]4OCO[C@H]4[C@@H]3O)ccc21` (some centres undefined): the minimum inhibitory concentration (MIC) against Pasteurella multocida came to 6.25 µg/mL (≈ 14.9 µM).
